# Assays:
# Type in all cases: cell-based, human
# [1] = system: imDAPs; assay: imDAP expansion: cell morphology, cell number (Vi-cell cytometer), expansion fold, Population Doubling Time
# Protocol: imDAPs were produced according to the method described in CN201910169525.0. The imDAPs (P0) were seeded on VTN-coated plates (1 μg/cm^2) at a density of 1×10^5 cells/cm^2 in the expansion medium (50% DMEM/F12, 50% Neurobasal™ medium, 1% (v/v) Glutamax, 2% (v/v) B27 (50×), 0.2 μM LDN193189, 3 μM CHIR99021, 100 ng/mL FGF8b) in the absence or presence of 5 μM Blebbistatin. In case where Blebbistatin is present, Blebbistatin was either removed 24 hrs after plating or present throughout the culture period. The medium was changed every day for 5 days.
# imDAPs were produced according to the method described in CN201910169525.0. The imDAPs (P0) were seeded on VTN-coated plates (1 μg/cm^2) at a density of 1×10^5 cells/cm^2 in the expansion medium (50% DMEM/F12, 50% Neurobasal™ medium, 1% (v/v) Glutamax, 2% (v/v) B27 (50×), 3 μM CHIR99021, 100 ng/mL FGF8b, […]) in the absence or presence of 0.2 μM LDN193189. The medium was changed every day for 5 days.
# imDAPs were produced according to the method described in CN201910169525.0. The imDAPs (P0) were seeded on VTN-coated plates (1 μg/cm^2) at a density of 1×10^5 cells/cm^2 in the expansion medium (50% DMEM/F12, 50% Neurobasal™ medium, 1% (v/v) Glutamax, 2% (v/v) B27 (50×), 0.2 μM LDN193189, 3 μM CHIR99021, 100 ng/mL FGF8b, 5 μM Blebbistatin). The medium was changed every day. When imDAPs reach 100% confluence (4-5 days), cells were passaged enzymatically with 1× TrypLE, centrifuged at 250 g for 5 minutes, counted and replaced on new VTN-coated plates (1 μg/cm^2) at a density of 1×10^5 cells/cm^2 in the expansion medium. imDAPs were continuously expanded for 6 passages. At each passage, imDAPs were harvested at an expansion fold 5˜10 (over the initial number of imDAPs plated).
# imDAPs were produced according to the method described in CN201910169525.0. The imDAPs (P0) were seeded on DLL4-coated ([…]), VTN-coated (1 μg/cm^2) and DLL4/VTN-coated ([…]) plates at a low density of 1×10^4 cells/cm^2 respectively, and cultured in the expansion medium in the absence or presence of 5 µM SB431542. Medium was replaced every 3rd day until reaching 100% confluence (6 days) for cell collection. The typical cell morphology on day 4 was recorded (FIG. 4A). The cell number of each group was counted by Vi-cell cytometer (FIG. 4B). The cells of each group were stained with Foxa2-PE antibody (BD, #561589), the percentage of Foxa2+ imDAPs were analyzed by flow cytometry (FIG. 4C). The expansion medium used in this example contained the following components: 50% DMEM/F12, 50% Neurobasal™ medium, 1% (v/v) Glutamax, 1% (v/v) B27, 50 μg/ml ascorbic acid, 0.2 μM LDN193189, 100 ng/ml FGF8b, 3 μM CHIR99021 and 10 μM Y27632.
# imDAPs were produced according to the method described in CN201910169525.0. The imDAPs (P0) were seeded on DLL4/VTN-coated (1 μg/cm^2 for each) plates at a low density of 1×10^4 cells/cm^2, and cultured in the expansion medium (EM1, EM2, EM3, EM4). Medium was replaced every 3rd day until reaching 100% confluence (6 days) for cell collection. EM1 used in Example 9 contained the following components: 50% DMEM/F12, 50% Neurobasal™ medium, 1% (v/v) Glutamax, 1% (v/v) B27 (50×), […], 3 μM CHIR99021, 5 μM SB431542 and 10 μM Y27632. EM2 used in Example 9 contained the following components: 50% DMEM/F12, 50% Neurobasal™ medium, 1% (v/v) Glutamax, 1% (v/v) B27 (50×), 50 μg/ml ascorbic acid, […] LDN193189, 3 μM CHIR99021, 5 μM SB431542 and 10 μM Y27632. EM3 used in Example 9 contained the following components: 50% DMEM/F12, 50% Neurobasal™ medium, 1% (v/v) Glutamax, 1% (v/v) B27 (50×), 50 μg/mL ascorbic acid, […], 100 ng/ml FGF8b, 3 μM CHIR99021, 5 μM SB431542 and 10 μM Y27632. EM4 used in Example 9 contained the following components: 50% DMEM/F12, 50% Neurobasal™ medium, 1% (v/v) Glutamax, 1% (v/v) B27 (50×), 50 μg/ml ascorbic acid, 0.2 μM LDN193189, 10 ng/ml FGF2, 3 μM CHIR99021, 5 μM SB431542 and 10 μM Y27632. […]
# [2] = system: imDAPs; assay: imDAP maturation: cell morphology, adhesion and cell yield; conditions: Example 12; 1 μM IWR1 for at least 3 days; day 7; FIG. 7D
# Protocol: imDAPs were produced according to the method described in CN201910169525.0, and expanded as described in Example 10. […] MM-H used in Example 11 contained the following components: Neurobasal™ medium, 1% (v/v) Glutamax, 0.5 mM Db-cAMP sodium salt, 200 μM ascorbic acid, 20 ng/ml BDNF, 20 ng/ml GDNF, 1 ng/ml TGF-β3, 10 μM DAPT, HhPLT (0.5%, 1%, 2%). MM-B used in Example 11 contained the following components: Neurobasal, 1% (v/v) Glutamax, 0.5 mM Db-cAMP sodium salt, 200 μM ascorbic acid, 20 ng/ml BDNF, 20 ng/ml GDNF, 1 ng/ml TGF-β3, 10 μM DAPT, 2% (v/v) B27 (50×) (as control). The above HhPLT was produced from hPLT as follows. The hPLT was centrifuged at 3000 g for 30 min at 4° C. to obtain the supernatant, which was heated to 56° C. for 30 min. The suspension was finally cooled down to 4° C. at least 5 min, and spun at 3000 g for 30 min at 4° C. to obtain the HhPLT supernatant. Aliquots were prepared and stored at −80° C. until use. The above Medium was changed every 3rd day. On day 7, the imDAPs at early maturation stage were dissociated enzymatically with 1× TrypLE, centrifuged at 250 g for 5 minutes.
# imDAPs were produced according to the method described in CN201910169525.0, and expanded as described in Example 10. […] Medium was changed every 3rd day. On day 7, the imDAPs at early maturation stage were dissociated enzymatically with 1× TrypLE, centrifuged at 250 g for 5 minutes. Cells were collected for RT-qPCR analysis of EN1, LMX1A, FOXA2, NURR1, SOX6 and TH gene expression. The maturation medium used in Example 12 contained the following components: Neurobasal™ medium, 1% (v/v) Glutamax, 1% (v/v) HhPLT, 0.5 mM Db-cAMP sodium salt, 200 μM ascorbic acid, 20 ng/mL BDNF, 20 ng/mL GDNF, 1 ng/mL TGF-β3, 10 μM DAPT.
# imDAPs were produced according to the method described in CN201910169525.0, and expanded as described in Example 10. […] Cells were collected and counted by Vi-cell cytometer. The cells were analyzed by RT-qPCR for EN1, LMX1A, FOXA2, NURR1, SOX6 and TH gene expression. […]
# [3] = system: imDAPs; assay: Flow cytometry (FACS) analysis of FOXA2 expression in expanded imDAPs; conditions: Example 8; VTN or DLL4/VTN coating, with or without SB431542; FIG. 4C
# Protocol: • 1. Individualize and collect cells by either Accutase or TrypLE treatment. • 2. Wash cells with 1 ml PBS and pellet cells at 250×g for 15 sec. • 3. Remove supernatant, add ˜200 μl of 4% PFA, mix and fix for 10 min at RT. • 4. Pellet cells at 350×g for 5 min. • 5. Wash cells by 1 ml of FACS buffer and pellet cells at 350×g for 5 min. • 6. Remove supernatant, add 200 μl/tube of FACS buffer/0.1% TritonX, mix for 10 min at RT. • 7. Wash cells by 1 ml of FACS buffer and pellet cells at 350×g for 5 min. • 8. Remove supernatant, add 200 μl/tube of primary antibody diluted in FACS buffer, mix gently, and incubate for 30 min at RT. • 9. Wash cells by 1 ml of FACS buffer and pellet cells at 350×g for 5 min. • 10. Remove supernatant, and add 200 μl of secondary antibody diluted in FACS buffer, mix gently, and incubate for 30 min at RT. • 11. Wash cells by 1 ml of FACS buffer and pellet cells at 300×g for 5 min. • 12. Remove supernatant, add 200 μl of FACS buffer, and run samples on the flow cytometry. (2) qRT-PCR • 1. For qRT-PCR analysis of mRNA gene expression, RNA should be harvested from at least 2×10^6 cells. • 2. Harvest cells, add 350 μl of buffer RLT+1% (vol/vol) s-mercaptoethanol to the well, transfer the lysate to a 1.5 ml tube, and put it immediately on ice. • 3. Perform RNA extraction using the Tiangen Kit (DP430), and follow the manufacturer's protocol ‘Purification of total RNA from animal and human cells’. • 4. When the RNA extraction was completed, determine the RNA concentration using a Nanodrop instrument. • 5. Perform the first-strand cDNA synthesis reaction with 1 μg of RNA using the HiScript TM II Q RT SuperMIX for qPCR(+gDNA wiper) Kit (Vazyme, #R223-01) for RT-qPCR. Follow the manufacturer's ‘First-Strand cDNA Synthesis’ protocol. This reaction would yield a 20 μl product. • 6. Dilute the 10 μl cDNA product in 80 μl of nuclease-free water. • 7. Pipette the diluted cDNA product (1 μl), Sybr green master mix (5 μl, Transgen, #AQ131) and 0.95 μM reverse/forward primer mix (4 μl) into a 384-well PCR plate in triplicate, either manually or using an automated pipetting robot. The complete primer panel included the target genes and the housekeeping gene (RPL13A). In the analysis, also included a sample of undifferentiated hPSCs to determine the gene expression levels relative to the expression in hPSCs. • 8. Analyze the samples by running a quantitative PCR on the LightCycler 480 instrument using a 40× cycle two-step protocol with a 60° C., 60 sec annealing/elongation step and a 95° C., 30 sec denaturation step. The average CT values from the three technical replicates were used for calculations of relative gene expression using the ΔΔCT method. For each gene, calculate the FC of the differentiated samples relative to the undifferentiated control sample using the housekeeping gene for normalization. Next, calculate the average of the FC values on the basis of the housekeeping gene. (3) Immunocytochemical Analysis • 1. Cell fixation: Remove the medium from the cells and wash with PBS. Add 4% (wt/vol) PFA (e.g., 200 μl to a well in a 48-well plate) and incubate at room temperature (RT) for 15 min. after incubation, wash the cells three times in PBS. • 2. Blocking: Remove PBS from the wells and add blocking solution to the cells, add enough volume to cover the cells. Leave the cells in blocking solution for 1 h at RT. • 3. Primary antibodies incubation: Remove the blocking solution from the cells and add the primary antibody solutions (˜100 μl/cm^2). […]
molecule,measurement,setting,value
Cc1ccc2c(c1)C(=O)C1(O)CCN(c3ccccc3)C1=N2 (centres unmarked) [Blebbistatin],imDAP expansion (cell morphology),"[1]; Example 1, 5 μM Blebbistatin throughout culture vs no Blebbistatin or plating day only, VTN-coated plates, 5 days, FIG. 1A",supported better imDAP expansion
O=C(Nc1cccc2cccnc12)c1ccc(N2C(=O)[C@@H]3[C@H](C2=O)[C@@H]2C=C[C@H]3C2)cc1 [IWR1],cell morphology during maturation,[2],showed more obvious neural fibers
NC(=O)c1ccc(-c2nc(-c3ccc4c(c3)OCO4)c(-c3ccccn3)[nH]2)cc1 [SB431542],FOXA2 expression (percentage of Foxa2+ imDAPs),[3],could improve FOXA2 expression
"FGF2: fibroblast growth factor, used at 10 ng/ml",imDAP expansion (overall conclusion),[1]; Example 9,had no additional effects on imDAP expansion
same,cell morphology of expanded imDAPs,"[1]; Example 9, 10 ng/ml FGF2 (EM4), DLL4/VTN-coated, day 5, FIG. 5A",some obvious heterogeneous cells were observed

# From patent US12391919B2, “Culture medium, coating matrix and method for maturing midbrain dopaminergic progenitor cells” (NUWACELL BIOTECHNOLOGIES CO., LTD., priority 2022, dated 2025)
